According to patent US8003602B2 (priority 2006, dated 2011):
Values after ≈ are worked out from the molar mass of the structure shown.

Tests used:
S. aureus KEM-MRSA18 = assay: MIC, Macro-broth dilution method; type: cell-based, Staphylococcus aureus
Text: (§1) The in-vitro potency was established by minimum inhibitory concentration (MIC) determinations of the compound PM181104 against bacterial strains, by using the Macro-broth dilution method as per National Committee for Clinical Laboratory Standards (2000) guidelines [Journal of Anti-microbial Chemotherapy, 2002, 50, 125-128 (Cross Reference 8: Methods for Dilution Antimicrobial Susceptibility Tests for Bacteria that Grow Aerobically-Fifth Edition: Approved Standard M7-A5. NCCLS, Wayne, Pa., USA)]. Unless stated otherwise, Mueller-Hinton broth was used as nutrient medium for the assay. Linezolid (manufactured by Glenmark Pharma Ltd; Batch no: K2005028) was used as known standard in all in-vitro experiments. For preparation of the stock solution the compound PM181104 was dissolved in chloroform (5% of the total required volume) and diluted using methanol (95% of the total required volume).

S. aureus KEM-MRSA7 = assay: MIC, Macro-broth dilution method; type: cell-based, Staphylococcus aureus
Text: as §1

S. aureus Lilavati-MRSA3 = assay: MIC, Macro-broth dilution method; type: cell-based, Staphylococcus aureus
Text: as §1

S. aureus (789) = assay: MIC, Macro-broth dilution method; type: cell-based, Staphylococcus aureus
Text: as §1

S. aureus KEM-MRSA11 = assay: MIC, Macro-broth dilution method; type: cell-based, Staphylococcus aureus
Text: as §1

S. aureus KEM-MRSA23 = assay: MIC, Macro-broth dilution method; type: cell-based, Staphylococcus aureus
Text: as §1

S. aureus KEM-MRSA19 = assay: MIC, Macro-broth dilution method; type: cell-based, Staphylococcus aureus
Text: as §1

E. faecalis, ATCC 51299 = type: cell-based
Text: as §1

E. faecalis ATCC 51575 = type: cell-based
Text: as §1

[1] = test system: Staphylococcus aureus subsp. aureus ATCC 33591; type: cell-based; details: S. aureus MRSA ATCC 33591
Text: as §1

S. aureus E-710 [2] = assay: Lung infection model; type: in vivo, Balb/C mice; details: 5 mg/kg intravenously at 24 and 36 hours post infection, lungs collected at 48 hours
Text: (§2) The in-vivo potency was established by protection dose (PD) determinations of the compound PM181104 for its antibiotic activity in three animal models using either male or female Balb/C mice.
(§3) The models used were the general purpose efficacy testing models and organ/tissue specific efficacy testing models. The general purpose efficacy testing models used were systemic infection model (septicemia), and localized infection model (neutropenic thigh model). The Organ/Tissue specific infection models used for efficacy testing were kidney, lung infection, and skin abscess model.
Balb/C mice were rendered neutropenic by intraperitoneally administering 200 mg/kg cyclophosphamide four days and two days prior to infection. On the day of infection, the mice were anesthetized and infected with S. aureus E-710 log-phase culture suspension having bacterial density of approximately 10^6 to 10^7 cfu/ml. 24 and 36 hours post infection the first and second respective dose of drug was administered intravenously. 48 hours post infection, the animals were humanely euthanized and their lungs were aseptically collected to determine the viable count of bacteria. In this model, PM181104 was tested at 5 mg/kg dose prepared in cremophor-ethanol formulation as described in example 14. Two standard antibiotics viz. Linezolid (80 mg/kg single dose at 24 hours post infection) and Vancomycin (110 mg/kg, two doses at 24 and 48 hours post infection) were used as positive controls.

B. megaterium FH 1127 = assay: MIC, Macro-broth dilution method; type: cell-based, Bacillus megaterium
Text: as §1

B. subtilis ATCC 6633 = assay: MIC, Macro-broth dilution method; type: cell-based, Bacillus subtilis
Text: as §1

B. subtilis = assay: MIC, Macro-broth dilution method; type: cell-based, Bacillus subtilis
Text: as §1

E. faecium ATCC 51559 = type: cell-based, Enterococcus faecium
Text: as §1

E. faecium (R-2) = type: cell-based, Enterococcus faecium; details: E. faecium R-2 (VRE)
Text: as §1

[3] = solvents in which soluble
Text: The physico-chemical and spectral properties of the compound PM181104

S. aureus E-710 [4] = assay: Neutropenic thigh model; type: in vivo, Balb/C mice; details: 5 mg/kg intravenously two hours post infection, 6 hour time point
Text: as §2, §3
Each experimental group consisted of six animals. PM181104 was prepared in cremophor-ethanol formulation as described in example 14.

B. cereus = assay: MIC, Macro-broth dilution method; type: cell-based, Bacillus cereus
Text: as §1

[5] = test system: methicillin resistant S. aureus E710 (MRSA); type: in vivo, Balb/C mice; details: 5 mg/kg intravenously two hours post infection
Text: as §2, §3
Balb/C mice were infected subcutaneously with approximately 10^8 cfu of an overnight grown culture of methicillin resistant S. aureus E710 (MRSA). The bacteria were suspended in 1:1 mixture of 2% cytodex beads in normal saline (0.85% sodium chloride). PM181104 was prepared in cremophor-ethanol formulation as described in example 14. The solution was administered intravenously at 2.5 mg, 5 mg and 10 mg/kg doses, two hours post infection. Each experimental group consisted of six animals. Following abscess formation the animals were sacrificed and abscess harvested to determine the viable counts. […] Linezolid (manufactured by Glenmark Pharma Ltd; Batch no: K2005028) at 50 mg/kg dose.

S. epidermidis 6098 = assay: MIC, Macro-broth dilution method; type: cell-based, Staphylococcus epidermidis
Text: as §1

S. epidermidis 32965 = assay: MIC, Macro-broth dilution method; type: cell-based, Staphylococcus epidermidis
Text: as §1

S. epidermidis 5744IW = assay: MIC, Macro-broth dilution method; type: cell-based, Staphylococcus epidermidis
Text: as §1

[6] = test system: S. epidermidis 6493II(2)W; assay: MIC, Macro-broth dilution method; type: cell-based, Staphylococcus epidermidis
Text: as §1

S. epidermidis 823 = assay: MIC, Macro-broth dilution method; type: cell-based, Staphylococcus epidermidis
Text: as §1

S. epidermidis 10221II W = assay: MIC, Macro-broth dilution method; type: cell-based, Staphylococcus epidermidis
Text: as §1

S. epidermidis Pat 01 IV = assay: MIC, Macro-broth dilution method; type: cell-based, Staphylococcus epidermidis
Text: as §1

C=C(NC(=O)C(=C)NC(=O)C1CCCN1C(=O)c1nc(-c2ccc(-c3nc(C(=O)NC(=C)C(=O)NC(C)C(N)=O)cs3)c(-c3csc(C4Cc5nc(cs5)C(=O)NC(Cc5ccccc5)C5=NC(CS5)C(=O)NC(Cc5ccc(O)cc5)C(=O)N5CCCC5c5nc(cs5)C(=O)N4)n3)n2)oc1C)C(N)=O (stereo not shown) [PM181104]
MIC (S. aureus KEM-MRSA18): 0.01563 µg/mL (≈ 0.0103 µM)
MIC (S. aureus KEM-MRSA7): 0.01563 µg/mL (≈ 0.0103 µM)
MIC (S. aureus Lilavati-MRSA3): 0.01563 µg/mL (≈ 0.0103 µM)
MIC (S. aureus (789)): 0.00781 µg/mL (≈ 0.00515 µM)
MIC (S. aureus KEM-MRSA11): 0.0625 µg/mL (≈ 0.0412 µM)
MIC (S. aureus KEM-MRSA23): 0.01563 µg/mL (≈ 0.0103 µM)
MIC (S. aureus KEM-MRSA19): 0.00781 µg/mL (≈ 0.00515 µM)
MIC (E. faecalis, ATCC 51299): 0.01563 µg/mL (≈ 0.0103 µM)
MIC (E. faecalis ATCC 51575): 0.03125 µg/mL (≈ 0.0206 µM)
MIC [1]: 0.03125 µg/mL (≈ 0.0206 µM)
activity profile in lung infection (S. aureus E-710 [2]): bacteriostatic activity
difference in the bacterial count in the lungs as compared to untreated control animals (S. aureus E-710 [2]): approximately 2 log
MIC (B. megaterium FH 1127): 0.00781 µg/mL (≈ 0.00515 µM)
MIC (B. subtilis ATCC 6633): 0.00781 µg/mL (≈ 0.00515 µM)
MIC (B. subtilis): 0.01563 µg/mL (≈ 0.0103 µM)
MIC (E. faecium ATCC 51559): 0.00781 µg/mL (≈ 0.00515 µM)
MIC (E. faecium (R-2)): 0.00781 µg/mL (≈ 0.00515 µM)
Solubility [3]: Methanol, DMSO
decrease in viable counts in thigh tissue (S. aureus E-710 [4]): approximately 1 log
MIC (B. cereus): 0.00391 µg/mL (≈ 0.00258 µM)
decrease in bacterial count in abscess [5]: approximately 1 log
MIC (S. epidermidis 6098): 0.0625 µg/mL (≈ 0.0412 µM)
MIC (S. epidermidis 32965): 0.03125 µg/mL (≈ 0.0206 µM)
MIC (S. epidermidis 5744IW): 0.01563 µg/mL (≈ 0.0103 µM)
MIC [6]: 0.0625 µg/mL (≈ 0.0412 µM)
MIC (S. epidermidis 823): 0.03125 µg/mL (≈ 0.0206 µM)
MIC (S. epidermidis 10221II W): 0.00781 µg/mL (≈ 0.00515 µM)
MIC (S. epidermidis Pat 01 IV): 0.0625 µg/mL (≈ 0.0412 µM)
